Laboratory results: PubChem BioAssay (NCI)
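1) Cells in 96-well plates. 2) Compound, 48 h, 5 concentrations. 3) Linear interpolation between surrounding doses. 4) Unreached endpoint = highest concentration. GI50: concentration for 50% inhibition of growth. TGI is the concentration that stops growth completely.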

Tests used:
Test in all cases: growth of human tumour cells (NCI), 48 h
HS 578T breast = tested on: HS 578T breast
SF-268 CNS = tested on: SF-268 CNS
NCI/ADR-RES ovarian = tested on: NCI/ADR-RES ovarian
ACHN renal = tested on: ACHN renal
LOX IMVI melanoma = tested on: LOX IMVI melanoma
MDA-MB-231 breast = tested on: MDA-MB-231 breast
SNB-19 CNS = tested on: SNB-19 CNS
T-47D breast = tested on: T-47D breast
MCF7 breast = tested on: MCF7 breast
NCI-H23 lung = tested on: NCI-H23 lung
CAKI-1 renal = tested on: CAKI-1 renal
RXF 393 renal = tested on: RXF 393 renal
SK-OV-3 ovarian = tested on: SK-OV-3 ovarian
HOP-62 NSCLC = tested on: HOP-62 NSCLC
OVCAR-8 ovarian = tested on: OVCAR-8 ovarian
NCI-H226 lung = tested on: NCI-H226 lung
M14 melanoma = tested on: M14 melanoma
BT-549 breast = tested on: BT-549 breast
SF-539 CNS = tested on: SF-539 CNS
EKVX NSCLC = tested on: EKVX NSCLC
786-0 renal = tested on: 786-0 renal
SF-295 CNS = tested on: SF-295 CNS
SNB-75 CNS = tested on: SNB-75 CNS
SK-MEL-2 melanoma = tested on: SK-MEL-2 melanoma
HOP-92 NSCLC = tested on: HOP-92 NSCLC
U251 CNS = tested on: U251 CNS
HCT-116 colon = tested on: HCT-116 colon
UO-31 renal = tested on: UO-31 renal
MOLT-4 leukemia = tested on: MOLT-4 leukemia
OVCAR-5 ovarian = tested on: OVCAR-5 ovarian
K-562 leukemia = tested on: K-562 leukemia
SK-MEL-5 melanoma = tested on: SK-MEL-5 melanoma
UACC-62 melanoma = tested on: UACC-62 melanoma
RPMI-8226 leukemia = tested on: RPMI-8226 leukemia
COLO 205 colon = tested on: COLO 205 colon
TK-10 renal = tested on: TK-10 renal
PC-3 prostate = tested on: PC-3 prostate
SW-620 colon = tested on: SW-620 colon
A549 NSCLC = tested on: A549 NSCLC
UACC-257 melanoma = tested on: UACC-257 melanoma
MALME-3M melanoma = tested on: MALME-3M melanoma
OVCAR-4 ovarian = tested on: OVCAR-4 ovarian
SR leukemia = tested on: SR leukemia
CCRF-CEM leukemia = tested on: CCRF-CEM leukemia
IGROV1 ovarian = tested on: IGROV1 ovarian
MDA-MB-435 = tested on: MDA-MB-435
HCT-15 colon = tested on: HCT-15 colon
DU-145 prostate = tested on: DU-145 prostate
KM12 colon = tested on: KM12 colon
OVCAR-3 ovarian = tested on: OVCAR-3 ovarian
SN12C renal = tested on: SN12C renal
SK-MEL-28 melanoma = tested on: SK-MEL-28 melanoma
NCI-H522 lung = tested on: NCI-H522 lung
HL-60(TB) leukemia = tested on: HL-60(TB) leukemia
HT29 colon = tested on: HT29 colon

Nc1nc(Cl)c(N=Nc2ccc(Cl)cc2)c(NCC2(CO)CCC2)n1
GI50 (HS 578T breast): 32.9 µM
GI50 (SF-268 CNS): 46.3 µM
GI50 (NCI/ADR-RES ovarian): 41.8 µM
GI50 (ACHN renal): 41 µM
GI50 (LOX IMVI melanoma): 41 µM
GI50 (MDA-MB-231 breast): 8.74 µM
TGI (MDA-MB-231 breast): 51.1 µM
GI50 (SNB-19 CNS): 33.7 µM
GI50 (T-47D breast): 26.4 µM
GI50 (MCF7 breast): 25.3 µM
GI50 (NCI-H23 lung): 48 µM
GI50 (CAKI-1 renal): 2.27 µM
GI50 (RXF 393 renal): 36.5 µM
TGI (RXF 393 renal): 61.6 µM
GI50 (SK-OV-3 ovarian): 12.6 µM
GI50 (HOP-62 NSCLC): 42 µM
TGI (HOP-62 NSCLC): 82.6 µM
GI50 (OVCAR-8 ovarian): 26.8 µM
TGI (OVCAR-8 ovarian): 88.8 µM
GI50 (NCI-H226 lung): 77 µM
GI50 (M14 melanoma): 98.9 µM
GI50 (BT-549 breast): 49.8 µM
GI50 (SF-539 CNS): 90.7 µM
GI50 (EKVX NSCLC): 21.7 µM
GI50 (786-0 renal): 10.2 µM
GI50 (SF-295 CNS): 49.4 µM
GI50 (SNB-75 CNS): 7.05 µM
TGI (SNB-75 CNS): 30.1 µM
GI50 (SK-MEL-2 melanoma): 89.3 µM
GI50 (HOP-92 NSCLC): 14.9 µM
TGI (HOP-92 NSCLC): 64.9 µM
GI50 (U251 CNS): 41.1 µM
GI50 (HCT-116 colon): 36.8 µM

N#CC1=C(N)NC(N2CCOCC2)=NC12Nc1ccccc1N2
GI50 (UO-31 renal): 12.5 µM
TGI (UO-31 renal): 81.4 µM
GI50 (HS 578T breast): 18.9 µM
TGI (HS 578T breast): 54.2 µM
GI50 (SF-268 CNS): 21.6 µM
TGI (SF-268 CNS): 51.1 µM
GI50 (MOLT-4 leukemia): 62.5 µM
TGI (MOLT-4 leukemia): > 100 µM
GI50 (NCI/ADR-RES ovarian): 28.3 µM
TGI (NCI/ADR-RES ovarian): 87 µM
GI50 (OVCAR-5 ovarian): 42.7 µM
TGI (OVCAR-5 ovarian): > 100 µM
GI50 (K-562 leukemia): > 100 µM
TGI (K-562 leukemia): > 100 µM
GI50 (SK-MEL-5 melanoma): 15 µM
TGI (SK-MEL-5 melanoma): 32 µM
GI50 (ACHN renal): 33.3 µM
TGI (ACHN renal): > 100 µM
GI50 (UACC-62 melanoma): 32.2 µM
TGI (UACC-62 melanoma): 82.1 µM
GI50 (RPMI-8226 leukemia): 24.2 µM
TGI (RPMI-8226 leukemia): > 100 µM
GI50 (COLO 205 colon): 24.1 µM
TGI (COLO 205 colon): > 100 µM
GI50 (LOX IMVI melanoma): 23.5 µM
TGI (LOX IMVI melanoma): 62.5 µM
GI50 (TK-10 renal): 10.7 µM
TGI (TK-10 renal): 46.6 µM
GI50 (MDA-MB-231 breast): 15.3 µM
TGI (MDA-MB-231 breast): 70.3 µM
GI50 (PC-3 prostate): 46.1 µM
TGI (PC-3 prostate): > 100 µM
GI50 (SNB-19 CNS): 40 µM
TGI (SNB-19 CNS): > 100 µM
GI50 (T-47D breast): 59.1 µM
TGI (T-47D breast): > 100 µM
GI50 (SW-620 colon): 26.7 µM
TGI (SW-620 colon): > 100 µM
GI50 (A549 NSCLC): 39.8 µM
TGI (A549 NSCLC): > 100 µM
GI50 (UACC-257 melanoma): 22.9 µM
TGI (UACC-257 melanoma): 49.1 µM
GI50 (MALME-3M melanoma): 30.5 µM
TGI (MALME-3M melanoma): > 100 µM
GI50 (NCI-H23 lung): 21.9 µM
TGI (NCI-H23 lung): > 100 µM
GI50 (OVCAR-4 ovarian): > 100 µM
TGI (OVCAR-4 ovarian): > 100 µM
GI50 (CAKI-1 renal): 10.8 µM
TGI (CAKI-1 renal): 37.8 µM
GI50 (RXF 393 renal): 14.2 µM
TGI (RXF 393 renal): 40.7 µM
GI50 (SR leukemia): 28.8 µM
TGI (SR leukemia): > 100 µM
GI50 (SK-OV-3 ovarian): 58.1 µM
TGI (SK-OV-3 ovarian): > 100 µM
GI50 (CCRF-CEM leukemia): > 100 µM
TGI (CCRF-CEM leukemia): > 100 µM
GI50 (HOP-62 NSCLC): 6.09 µM
TGI (HOP-62 NSCLC): 32.5 µM
GI50 (OVCAR-8 ovarian): 37.5 µM
TGI (OVCAR-8 ovarian): > 100 µM
GI50 (IGROV1 ovarian): 2.15 µM
TGI (IGROV1 ovarian): 23.8 µM
GI50 (MDA-MB-435): 31 µM
TGI (MDA-MB-435): > 100 µM
GI50 (HCT-15 colon): 35.2 µM
TGI (HCT-15 colon): > 100 µM
GI50 (DU-145 prostate): 63.6 µM
TGI (DU-145 prostate): > 100 µM
GI50 (KM12 colon): > 100 µM
TGI (KM12 colon): > 100 µM
GI50 (NCI-H226 lung): 27.3 µM
TGI (NCI-H226 lung): > 100 µM
GI50 (M14 melanoma): > 100 µM
TGI (M14 melanoma): > 100 µM
GI50 (BT-549 breast): 32.6 µM
TGI (BT-549 breast): > 100 µM
GI50 (SF-539 CNS): 36.3 µM
TGI (SF-539 CNS): > 100 µM
GI50 (OVCAR-3 ovarian): 20.2 µM
TGI (OVCAR-3 ovarian): 70.7 µM
GI50 (EKVX NSCLC): > 100 µM
TGI (EKVX NSCLC): > 100 µM
GI50 (SN12C renal): 30.1 µM
TGI (SN12C renal): > 100 µM
GI50 (786-0 renal): 13 µM
TGI (786-0 renal): 40 µM
GI50 (SF-295 CNS): 32.6 µM
TGI (SF-295 CNS): > 100 µM
GI50 (SK-MEL-28 melanoma): 55.8 µM
TGI (SK-MEL-28 melanoma): > 100 µM
GI50 (SNB-75 CNS): > 100 µM
TGI (SNB-75 CNS): > 100 µM
GI50 (SK-MEL-2 melanoma): 20.1 µM
TGI (SK-MEL-2 melanoma): 47.4 µM
GI50 (NCI-H522 lung): 23.5 µM
TGI (NCI-H522 lung): 59.3 µM
GI50 (HOP-92 NSCLC): > 100 µM
TGI (HOP-92 NSCLC): > 100 µM
GI50 (HL-60(TB) leukemia): 44.2 µM
TGI (HL-60(TB) leukemia): > 100 µM
GI50 (U251 CNS): 52.6 µM
TGI (U251 CNS): > 100 µM
GI50 (HCT-116 colon): 16 µM
TGI (HCT-116 colon): > 100 µM
GI50 (HT29 colon): 32.6 µM
TGI (HT29 colon): > 100 µM
